Laboratory results taken from PMC3519477, “Structures of the Human Poly (ADP-Ribose) Glycohydrolase Catalytic Domain Confirm Catalytic Mechanism and Explain Inhibition by ADP-HPD Derivatives” (PLoS ONE, 2012).
Several values for one entry are separate records, joined by “and”; a condition that tells them apart may be missing. Equal values may be shown once. Read-outs that look alike come from different tables or passages of the source.

Tests used:
hPARG4 = biological target: T1, hPARG4 (Homo sapiens, UniProt Q86W56); test: SPR competition experiments against saturating ADP-HPD; assay type: binding
T1 construct: a codon optimized gene encoding human PARG(448–976) was synthesized by GeneArt; 6His (TEV-cleavable) (N, cleaved yes); made in house; host or cells: E. coli BL21 (DE3) GOLD
Description: The ADPR and ADP-HPD complex structures superpose almost exactly (r.m.s. deviation 0.14 Å over all Cα; 0.47 Å over all atoms within the binding pocket (MOE, Chemical Computing Group)). ADPR and ADP-HPD engage in equivalent interactions, with the exception of loss of an H-bond between the 1″-OH and Glu756 as this OH is not present in ADP-HPD. […] We speculate that the bound conformation of ADP-HPD is stabilised relative to ADPR by dipole-dipole interactions between the HPD NH2 ^+ and a negatively charged α-phosphate oxygen and/or the oxygen linking the β-phosphate to ribose” (4.1 Å and 2.9 Å separation respectively, Figure 4b). In addition, the α-phosphate oxygen H-bonding network may be strengthened in the ADP-HPD complex by the charged interaction with the pyrrolidine NH2 ^+. This oxygen accepts H-bonds from the backbone NH of Gln754 and a conserved water molecule, and is shielded from solvent by Val753. Binding of ADP-HPD is primarily enthalpy driven (Table 1).
Studies of PARG inhibitor binding were conducted at 25°C. Samples were prepared as 5 fold dilutions in the experimental running buffer (20 mM HEPES pH 7, 150 mM NaCl, 2 mM DTT, 0.005% P20, 0.02% NaN3 with 5% DMSO). Surface regeneration was achieved using dissociation for a time period allowing the response to return to baseline. Control injections of a fixed, saturating ADP-HPD concentration of 20 µM were interspersed with injections of compound to allow monitoring of the functionality of the protein surface. To calculate affinities, SPR equilibrium binding data, consisting of Req values from 8–10 point concentration series, were analyzed by fitting a simple 1∶1 binding model to yield Rmax and Kd values using non-linear regression analysis in Grafit 6 (Erithacus Software).

bPARG = biological target: bPARG; parameters: method as in PMID 7830282; details: cited from earlier work
TcPARG Glu114Ala mutant = system: TcPARG Glu114Ala mutant; parameters: method as in supplemental 4 (Slade et al., 2011); details: ref supplemental 4 (Slade et al., 2011); cited from earlier work
TcPARG Glu115Ala mutant = system: TcPARG Glu115Ala mutant; parameters: method as in supplemental 4 (Slade et al., 2011); details: ref supplemental 4 (Slade et al., 2011); cited from earlier work
[1] = biological target: T2, hPARG (full-length recombinant hPARG(1–976)-6His) (Homo sapiens, UniProt Q86W56); test: PARG activity HTRF assay (PAR-PARP1 hydrolysis); assay type: biochemical; details: for IC50: hPARG
T2 construct: direct expression of hPARG(1–976) with a C-terminal hexahistidine tag; made in house; host or cells: E. coli BL21 (DE3) GOLD
Experimental: (§1) PARG activity was assessed using an HTRF assay which will be described in detail elsewhere (Bennett et al, manuscript in preparation). […] Following this incubation, biotinylated NAD^+ at a molar ratio to PARylated PARP1 of 0.7∶1 was added and incubation continued for 5 minutes. The reaction was terminated by addition of a PARP1-specific inhibitor to a final concentration of 4.7 µM. The solution was dialysed overnight to remove excess biotinylated NAD^+ and compound, and stored at −80°C. PARG activity was measured in a 384-well format HTRF assay using the biotin-labelled PARylated PARP1 as a substrate. Residual biotinylated PARylated PARP1 was detected by addition of a detection mix containing anti-6His–XL antibody (Cisbio) and streptavidin europium cryptate (Cisbio), and then monitoring the ratio of emission at 665 nm to 612 nm upon excitation at 340 nm.
Inhibition by ADP-HPD was measured using serial dilutions over the range 100 µM to 100 pM compound from a 1 mM stock in water. Assays contained 30 pM purified recombinant PARG and 9.67 nM PAR-PARP1 in a final volume of 9 µL assay buffer (50 mM MOPS pH 7.4, 0.1 mg/mL BSA, 3 mM EDTA, 0.4 mM EGTA, 1 mM DTT, 0.01% v/v Tween20, 50 mM KCl). Reactions were allowed to proceed for 8 minutes prior to the addition of 3 µL detection reagents (50 mM MOPS pH 7.4, 0.1 mg/mL BSA, 0.1 M Potassium Fluoride, 14 nM anti-6HIS-XL antibody, 0.75 nM Streptavidin Europium Cryptate). IC50s were calculated using a time-point of 1.5 hours from the addition of detection reagents.
Here, 17.5 nL of ADP-HPD ([…]) or OA-ADP-HPD (21.43 mM in DMSO) were dispensed by an ECHO555 (Labcyte Inc.) into Greiner white 1536-well plates over the specified range: ADP-HPD (100 µM to 100 pM) and OA-ADP-HPD (500 µM to 30 nM).
ADP-HPD and OA-ADP-HPD inhibition data were visualised in Prism (GraphPad), and IC50s derived from a non-linear regression analysis of the values from three separate experiments (run in triplicate) fit to a sigmoidal dose-response curve.

[2] = biological target: T3, hPARG26 (hPARG(448–976 [K616A, Q617A, K618A, E688A, K689A & K690A])) (Homo sapiens, UniProt Q86W56, E688A/K616A/K618A/K689A/K690A/Q617A); test: PARG activity HTRF assay (PAR-PARP1 hydrolysis); assay type: biochemical; details: 9 µL HTRF
T3 construct: a codon optimized gene encoding human PARG(448–976 [K616A, Q617A, K618A, E688A, K689A, K690A]); 6His (TEV-cleavable) (N, cleaved yes); made in house; host or cells: E. coli BL21 (DE3) GOLD (shake flasks, as for hPARG4)
Experimental: as §1
(§2) Inhibition by ADP-HPD was measured using serial dilutions over the range 100 µM to 100 pM compound from a 1 mM stock in water. Assays contained 30 pM purified recombinant PARG and 9.67 nM PAR-PARP1 in a final volume of 9 µL assay buffer (50 mM MOPS pH 7.4, 0.1 mg/mL BSA, 3 mM EDTA, 0.4 mM EGTA, 1 mM DTT, 0.01% v/v Tween20, 50 mM KCl). […] IC50s were calculated using a time-point of 1.5 hours from the addition of detection reagents. […]

hPARG4 (hPARG(448–976)) [3] = biological target: T4, hPARG4 (hPARG(448–976)) (Homo sapiens, UniProt Q86W56); test: PARG activity HTRF assay (PAR-PARP1 hydrolysis); assay type: biochemical; details: 9 µL HTRF
T4 construct: a codon optimized gene encoding human PARG(448–976) was synthesized by GeneArt; 6His (TEV-cleavable) (N, cleaved yes); made in house; host or cells: E. coli BL21 (DE3) GOLD
Experimental: as §1, §2

hPARG (full-length) [4] = biological target: T5, hPARG (full-length) (Homo sapiens, UniProt Q86W56); test: SPR binding to immobilised PARG, steady state fits; details: 25°C, steady state fit
T5 construct: direct expression of hPARG(1–976) with a C-terminal hexahistidine tag; made in house; host or cells: E. coli BL21 (DE3) GOLD
Experimental: (§3) Biosensor (SPR) analyses were conducted using a BIAcore 3000 or BIAcore S51 instrument. Research grade CM5 chips and coupling reagents (N-ethyl-N′-dimethylaminopropylcarbodiimide, EDC; N-hydroxysuccinimide, NHS; and 1 M ethanolamine HCl, pH 8.5) were purchased from BIAcore (GE Healthcare, Northampton, MA).
(§4) A CM5 chip was docked into the instrument, primed 5 times with filtered and degassed running buffer containing 50 mM HEPES pH 7, followed by preconditioning at 100 µL/min using two consecutive aliquots of 50 µL each of 10 mM HCl, 50 mM NaOH, 0.1% (w/v) SDS, 0.085% (v/v) H3PO4. PARG surfaces were prepared by standard amine coupling via exposed amines on PARG. Immobilisations were conducted at 25°C in 50 mM HEPES at a flow rate of 5 µL/min. Flow cells were activated for 7 min by injecting a 35 µL mixture of 50 mM NHS: 200 mM EDC. Subsequently, 35 µL of 100 µg/mL PARG was injected for 7 min, followed by a 35 µL injection of ethanolamine. Typical immobilisation levels ranged from 3000 to 5000 resonance units (RU). Nonderivatised flow cells served as reference surfaces.
(§5) Studies of PARG inhibitor binding were conducted at 25°C. […] To calculate affinities, SPR equilibrium binding data, consisting of Req values from 8–10 point concentration series, were analyzed by fitting a simple 1∶1 binding model to yield Rmax and Kd values using non-linear regression analysis in Grafit 6 (Erithacus Software).

hPARG4 (hPARG(448–976)) [5] = biological target: T4, hPARG4 (hPARG(448–976)); test: SPR binding to immobilised PARG, steady state fits; details: 25°C, steady state fit
Experimental: as §3, §4, §5

hPARG (full-length) [6] = biological target: T5, hPARG (full-length); test: Isothermal titration calorimetry; assay type: binding; details: 25°C
Experimental: (§6) This was carried out using an iTC200 instrument (Microcal, GE Healthcare, Northampton, MA) at 25°C in the following buffer: 20 mM HEPES pH 7, 150 mM NaCl, 2 mM DTT, 0.02% NaN3. Protein concentrations were typically 30 µM in the cell with ligand concentrations of at least 10 fold this concentration in the syringe. Typical injection protocols of 19×2 µL injections, spaced at 2 or 3 minute intervals were used. Curves were fitted by non-linear regression analysis using a one-site binding model provided by MicroCal Origin software (version 7).

hPARG4 (hPARG(448–976)) [7] = biological target: T4, hPARG4 (hPARG(448–976)); test: Isothermal titration calorimetry; assay type: binding; details: 25°C; for Kd: read-out: KD (ITC); for ΔG / ΔH / ΔS: ITC
Experimental: as §6

[8] = system: bovine PARG (bPARG), purified full-length protein; parameters: method as in PMID 13678410; details: read-out: IC50, literature value; cited from earlier work
[9] = system: bovine PARG (bPARG), recombinant catalytic domain; parameters: method as in PMID 13678410; details: recombinant catalytic domain of bPARG; read-out: IC50, literature value; cited from earlier work
[10] = Cell activity of PARG inhibitor (data not shown); assay type: cell-based

T5 sequence (Q86W56 whole entry): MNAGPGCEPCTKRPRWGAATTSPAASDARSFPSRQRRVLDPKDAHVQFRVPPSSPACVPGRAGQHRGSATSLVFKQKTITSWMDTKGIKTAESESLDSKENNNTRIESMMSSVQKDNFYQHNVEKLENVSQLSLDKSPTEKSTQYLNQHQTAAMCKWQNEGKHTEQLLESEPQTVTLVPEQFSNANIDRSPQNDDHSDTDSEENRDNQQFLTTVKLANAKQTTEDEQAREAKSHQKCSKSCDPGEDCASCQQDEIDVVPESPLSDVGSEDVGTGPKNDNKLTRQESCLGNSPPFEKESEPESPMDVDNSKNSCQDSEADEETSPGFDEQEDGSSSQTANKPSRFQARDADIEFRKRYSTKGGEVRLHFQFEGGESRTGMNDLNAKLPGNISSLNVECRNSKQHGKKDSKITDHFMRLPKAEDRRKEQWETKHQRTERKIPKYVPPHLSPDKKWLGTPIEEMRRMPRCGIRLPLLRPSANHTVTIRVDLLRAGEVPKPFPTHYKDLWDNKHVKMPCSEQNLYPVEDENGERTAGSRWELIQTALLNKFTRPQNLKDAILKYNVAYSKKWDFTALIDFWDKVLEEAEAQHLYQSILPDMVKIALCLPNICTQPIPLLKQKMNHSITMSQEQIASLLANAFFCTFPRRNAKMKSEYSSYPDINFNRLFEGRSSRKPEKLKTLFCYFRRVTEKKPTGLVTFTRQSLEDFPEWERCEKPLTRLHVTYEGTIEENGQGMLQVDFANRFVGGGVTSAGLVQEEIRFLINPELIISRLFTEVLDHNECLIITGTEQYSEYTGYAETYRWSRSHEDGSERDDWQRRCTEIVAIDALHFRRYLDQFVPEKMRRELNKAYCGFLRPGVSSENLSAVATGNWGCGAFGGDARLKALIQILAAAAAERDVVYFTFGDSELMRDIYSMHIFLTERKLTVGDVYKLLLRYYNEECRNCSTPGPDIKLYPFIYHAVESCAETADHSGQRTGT
T2 sequence (Q86W56 whole entry): as above
T1 sequence (Q86W56 448-976): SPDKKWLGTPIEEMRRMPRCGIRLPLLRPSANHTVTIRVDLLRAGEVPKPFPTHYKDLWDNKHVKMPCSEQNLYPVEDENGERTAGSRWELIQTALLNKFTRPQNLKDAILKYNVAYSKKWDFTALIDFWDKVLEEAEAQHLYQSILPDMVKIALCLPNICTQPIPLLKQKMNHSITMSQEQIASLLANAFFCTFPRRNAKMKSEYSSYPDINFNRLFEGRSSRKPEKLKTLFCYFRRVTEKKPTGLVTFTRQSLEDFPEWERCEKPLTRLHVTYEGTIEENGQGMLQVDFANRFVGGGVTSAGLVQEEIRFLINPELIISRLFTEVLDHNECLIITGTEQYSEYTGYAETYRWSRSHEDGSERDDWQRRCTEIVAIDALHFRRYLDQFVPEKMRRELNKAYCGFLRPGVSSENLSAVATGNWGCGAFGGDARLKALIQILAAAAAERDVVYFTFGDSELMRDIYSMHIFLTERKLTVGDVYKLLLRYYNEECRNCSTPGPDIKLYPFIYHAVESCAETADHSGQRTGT
T4 sequence (Q86W56 448-976): as above
T3 sequence (Q86W56 448-976 K616A/Q617A/K618A/E688A/K689A/K690A): as the sequence (Q86W56 448-976) above, with K169A, Q170A, K171A, E241A, K242A, K243A counted along it

Nc1ncnc2c1ncn2[C@@H]1O[C@H](COP(=O)(O)O)[C@@H](O)[C@H]1O [AMP]
drop-off in affinity upon removal of the β-phosphate-ribose moiety (hPARG4; AMP compared with ADPR): 10 fold
Kd (hPARG4; same competition-based method as for ADPR, n = 1, read-out: approximate KD (SPR competition)): ~380 µM

Nc1ncnc2c1ncn2C1OC(COP(=O)(O)OP(=O)(O)OCC2OC(O)C(O)C2O)C(O)C1O (stereo not shown) [ADPR, ADP-ribose]
weaker affinity relative to ADP-HPD (hPARG4; binding to hPARG, compared with ADP-HPD): ~1000 fold
Kd (hPARG4; hPARG4-ADP-HPD complex formed in situ, increasing concentrations of compound, data not shown, read-out: KD (SPR competition)): ~40 µM
Kd (bPARG; read-out: KD, reported value for bPARG): 120 µM
decrease in affinity versus wild-type (TcPARG Glu114Ala mutant): No detectable activity; 10-fold decrease in ADPR affinity
effect of mutation on affinity (TcPARG Glu115Ala mutant): No detectable activity; no effect on ADPR affinity

Nc1ncnc2c1ncn2C1OC(COP(=O)(O)OP(=O)(O)OCC2NCC(O)C2O)C(O)C1O (stereo not shown) [ADP-HPD, adenosine 5′-diphosphate (hydroxymethyl)pyrrolidinediol]
IC50 ([1]; 384-well HTRF, 9 µL, 30 pM PARG, 9.67 nM PAR-PARP1, 8 min reaction, read-out: IC50): 3 µM and 3.1 µM
IC50 ([1]; conditions of the High Throughput Screening campaign, read-out: IC50 under HTS campaign conditions): ~0.6 µM
IC50 [2]: 1100 ± 220 nM
IC50 (hPARG4 (hPARG(448–976)) [3]): 970 ± 240 nM
Kd (hPARG (full-length) [4]): 44.8 ± 2.9 nM
Kd (hPARG4 (hPARG(448–976)) [5]): 64.3 ± 2.6 nM
Kd (hPARG (full-length) [6]; values heavily influenced by base-line noise (Figure S2), read-out: KD (ITC)): 416 ± 89.9 nM
ΔG (hPARG (full-length) [6]; ITC): -36.4 ± 0.5 kJ/mol
ΔH (hPARG (full-length) [6]; ITC): -30.8 ± 0.04 kJ/mol
ΔS (hPARG (full-length) [6]; ITC): +18.8±1.7 J/mol/K
Kd (hPARG4 (hPARG(448–976)) [7]): 132 ± 14 nM
ΔG (hPARG4 (hPARG(448–976)) [7]): -39.4 ± 0.3 kJ/mol
ΔH (hPARG4 (hPARG(448–976)) [7]): -56.1 ± 0.4 kJ/mol
ΔS (hPARG4 (hPARG(448–976)) [7]): −56.1±0.5 J/mol/K
IC50 [8]: 330 nM
IC50 [9]: 1000 to 1400 nM
Kd (bPARG; read-out: KD, literature values for bPARG): 0.05 to 0.08 µM

CCCCCCCCNc1nc2c(N)ncnc2n1[C@@H]1O[C@H](COP(=O)(O)OP(=O)(O)OC[C@H]2NC[C@H](O)[C@@H]2O)[C@@H](O)[C@H]1O [OA-ADP-HPD, 8-n-octyl-amino-ADP-HPD]
completeness of inhibition of hPARG activity in vitro ([1]; compared with ADP-HPD, used as maximally-inhibited control in HTS assay): more complete inhibitor
IC50 ([1]; HTS campaign format, 3 µL reaction, 1536-well, 10 min, read-out: IC50): 16.3 ± 1.1 µM
Kd (hPARG4 (hPARG(448–976)) [7]): 800 ± 100 nM
ΔG (hPARG4 (hPARG(448–976)) [7]): -34.9 ± 0.3 kJ/mol
ΔH (hPARG4 (hPARG(448–976)) [7]): -50.6 ± 1.4 kJ/mol
ΔS (hPARG4 (hPARG(448–976)) [7]): −52.9±4.7 J/mol/K
cell activity [10]: unable to show cell activity
